SMILES strings stand for the structures. Counter-ions that a name gives are not always drawn. Where only a bound is given, the exact number is not on record here.

The first assay has as its system NQO1 specific enzyme activity in BEAS-2B cells (marker for NRF2 activation). Briefly: BEAS-2B NQO1 MTT Assay. The class given is cell-based. The following applies: Homo sapiens, BEAS-2B, 48 h, NQO1 specific activity induction, 48 hours with compound. The method in brief:
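Following 48 h compound treatment at 37° C., 5% CO2, cells were lysed and MTT cocktail added. Product formation was followed kinetically at 570 nm for 30 min. Rate (Delta OD/min) against log concentration was fitted with 3 parameters to give pEC50 for induction of NQO1 specific activity.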
The term EC50 denotes the concentration at which the effect is half-maximal. Take `Cc1ccc(C(OCc2cn(CC3CCN(C(=O)c4ccccc4)CC3)nn2)C(C)(C)C(=O)O)cc1CN1C[C@@H](C)Oc2ccccc2S1(=O)=O` (stereo partly drawn) [Example 31, 3-((1-((1-Benzoylpiperidin-4-yl)methyl)-1H-1,2,3-triazol-4-yl)methoxy)-2,2-dimethyl-3-(4-methyl-3-(((R)-4-methyl-1,1-dioxido-3,4-dihydro-2H-benzo[b][1,4,5]oxathiazepin-2-yl)methyl)phenyl)propanoic acid]: the EC50 fell in the range of 10 to 100 nM.
Same read-out and setting: to `CCn1cc(CO[C@H](c2ccc(C)c(CN3C[C@H](C)Cc4ncccc4S3(=O)=O)c2)C(C)(C)C(=O)O)nn1` [Example 68, (3R)-((1-ethyl-1H-1,2,3-triazol-4-yl)methoxy)-2,2-dimethyl-3-(4-methyl-3-(((R)-4-methyl-1,1-dioxido-4,5-dihydropyrido[2,3-f][1,2]thiazepin-2(3H)-yl)methyl)phenyl)propanoic acid] belongs 10 to 100 nM.
The same measure, in the same setting: to `Cc1ccc(C(OCc2cn(Cc3cccc(Cn4cc(C(C)C)nn4)c3)nn2)C(C)(C)C(=O)O)cc1CN1C[C@@H](C)Oc2ccccc2S1(=O)=O` (stereo partly drawn) [Example 37, 3-((1-(3-((4-Isopropyl-1H-1,2,3-triazol-1-yl)methyl)benzyl)-1H-1,2,3-triazol-4-yl)methoxy)-2,2-dimethyl-3-(4-methyl-3-(((R)-4-methyl-1,1-dioxido-3,4-dihydro-2H-benzo[b][1,4,5]oxathiazepin-2-yl)methyl)phenyl)propanoic acid] belongs 1 to 10 nM; to `CCn1cc(COC(c2ccc(C)c(CN(Cc3ccccc3)S(=O)(=O)c3cccc(C(=O)O)c3)c2)C(C)(C)C(=O)O)nn1` (stereo not drawn) [Example 95, 3-(N-benzyl-N-(5-(2-carboxy-1-((1-ethyl-1H-1,2,3-triazol-4-yl)methoxy)-2-methylpropyl)-2-methylbenzyl)sulfamoyl)benzoic acid], 100 to 1000 nM.
Same read-out and setting: as for `CC[C@@H]1CN(Cc2cc([C@@H](OCc3cn(CC)nn3)C(C)(C)C(=O)O)ccc2C)Cc2ccccc2O1` [Example 117, (R)-methyl 3-((1-ethyl-1H-1,2,3-triazol-4-yl)-methoxy)-3-(3-(((R)-2-ethyl-2,3-dihydro-benzo[f][1,4]oxazepin-4(5H)-yl)methyl)-4-methylphenyl)-2,2-dimethyl-propanoic acid, trifluoroacetate], the figure is 10 to 100 nM; as for `Cc1ccc(C(OCc2cn(Cc3cccc(Cn4cc(CC(=O)O)nn4)c3)nn2)C(C)(C)C(=O)O)cc1CN1C[C@@H](C)Oc2ccccc2S1(=O)=O` (stereo partly drawn) [Example 44, 3-((1-(3-((4-(Carboxymethyl)-1H-1,2,3-triazol-1-yl)methyl)benzyl)-1H-1,2,3-triazol-4-yl)methoxy)-2,2-dimethyl-3-(4-methyl-3-(((R)-4-methyl-1,1-dioxido-3,4-dihydro-2H-benzo[b][1,4,5]oxathiazepin-2-yl)methyl)phenyl)propanoic acid], 100 to 1000 nM.
Turning to `COC(=O)C(C)(C)C(OCc1cn(Cc2cccc(-c3cccc(C(=O)O)n3)c2)nn1)c1ccc(C)c(CN2C[C@@H](C)Oc3ccccc3S2(=O)=O)c1` (stereo partly drawn) [Example 58, 6-(3-((4-((3-Methoxy-2,2-dimethyl-1-(4-methyl-3-(((R)-4-methyl-1,1-dioxido-3,4-dihydro-2H-benzo[b][1,4,5]oxathiazepin-2-yl)methyl)phenyl)-3-oxopropoxy)methyl)-1H-1,2,3-triazol-1-yl)methyl)-phenyl)picolinic acid], the EC50 lay in the range of 100 to 1000 nM.
Still for that read-out and setting: as for `CC[C@@H]1CN(Cc2cc(C(OCc3cn(Cc4cc(C)cc(Cn5cc(CO)nn5)c4)nn3)C(C)(C)C(=O)O)ccc2C)S(=O)(=O)c2ccccc2O1` (stereo partly drawn) [Example 27, 3-(3-(((R)-4-ethyl-1,1-dioxido-3,4-dihydro-2H-benzo[b][1,4,5]oxathiazepin-2-yl)methyl)-4-methylphenyl)-3-((1-(3-((4-(hydroxymethyl)-1H-1,2,3-triazol-1-yl)methyl)-5-methylbenzyl)-1H-1,2,3-triazol-4-yl)methoxy)-2,2-dimethylpropanoic acid], the figure is 1 to 10 nM; as for `CC[C@@H]1CN(Cc2cc([C@@H](OCc3cn(CC)nn3)C(C)(C)C(=O)O)ccc2C)S(=O)(=O)c2ccccc2O1` [Example 5, (R)-3-(3-(((R)-4-ethyl-1,1-dioxido-3,4-dihydro-2H-benzo[b][1,4,5]oxathiazepin-2-yl)methyl)-4-methylphenyl)-3-((1-ethyl-1H-1,2,3-triazol-4-yl)methoxy)-2,2-dimethylpropanoic acid], below 1 nM; as for `CCCn1cc(CO[C@H](c2ccc(C)c(CN3C[C@@H](C)Cc4ccc(F)cc4S3(=O)=O)c2)C(C)(C)C(=O)O)nn1` [Example 87, (R)-3-(3-(((S)-8-fluoro-4-methyl-1,1-dioxido-4,5-dihydrobenzo[f][1,2]thiazepin-2(3H)-yl)methyl)-4-methylphenyl)-2,2-dimethyl-3-((1-propyl-1H-1,2,3-triazol-4-yl)methoxy)propanoic acid], below 1 nM.
The same measure, in the same setting: to `CCCN1CCC(Cn2cc(COC(c3ccc(C)c(CN4C[C@@H](C)Oc5ccccc5S4(=O)=O)c3)C(C)(C)C(=O)O)nn2)CC1` (stereo partly drawn) [Example 52, 2,2-Dimethyl-3-(4-methyl-3-(((R)-4-methyl-1,1-dioxido-3,4-dihydro-2H-benzo[b][1,4,5]oxathiazepin-2-yl)methyl)phenyl)-3-((1-((I-propylpiperidin-4-yl)methyl)-1H-1,2,3-triazol-4-yl)methoxy)propanoic acid] belongs 100 to 1000 nM.
Same read-out and setting: as for `Cc1ccc(C(OCc2cn(Cc3cccc(CN=[N+]=[N-])c3)nn2)C(C)(C)C(=O)O)cc1CN1C[C@@H](C)Oc2ccccc2S1(=O)=O` (stereo partly drawn) [Example 3, 3-((1-(3-(Azidomethyl)benzyl)-1H-1,2,3-triazol-4-yl)methoxy)-2,2-dimethyl-3-(4-methyl-3-(((R)-4-methyl-1,1-dioxido-3,4-dihydro-2H-benzo[b][1,4,5]oxathiazepin-2-yl)methyl)phenyl)propanoic acid], the figure is below 1 nM.
With `CCCn1cc(CO[C@H](c2ccc(C)c(CN3C[C@@H](C)Cc4ccc(C(F)(F)F)cc4S3(=O)=O)c2)C(C)(C)C(=O)O)nn1` [Example 86, (R)-2,2-dimethyl-3-(4-methyl-3-(((S)-4-methyl-1,1-dioxido-8-(trifluoromethyl)-4,5-dihydrobenzo[f][1,2]thiazepin-2(3H)-yl)methyl)phenyl)-3-((1-propyl-1H-1,2,3-triazol-4-yl)methoxy)propanoic acid], the EC50 was below 1 nM.
Same read-out and setting: as for `Cc1ccc(C(OCc2cn(CC3CCN(C4CCN(C)CC4)CC3)nn2)C(C)(C)C(=O)O)cc1CN1C[C@@H](C)Oc2ccccc2S1(=O)=O` (stereo partly drawn) [Example 55, 2,2-Dimethyl-3-(4-methyl-3-(((R)-4-methyl-1,1-dioxido-3,4-dihydro-2H-benzo[b][1,4,5]oxathiazepin-2-yl)methyl)phenyl)-3-((1-((1′-methyl-[1,4′-bipiperidin]-4-yl)methyl)-1H-1,2,3-triazol-4-yl)methoxy)propanoic Acid, Formic Acid Salt], the figure is 100 to 1000 nM.

Staying with this assay, now noted: NQO1 specific activity induction, 48 hours with compound.
Regarding `Cc1ccc(C(OCc2cn(CC(C)C)nn2)C(C)(C)C(=O)O)cc1CN1C[C@@H](C)Oc2ccccc2S1(=O)=O` (single isomer, unassigned) [Example 13], the EC50 lay in the range of 1 to 10 nM.

For the origin of these results see patent publication US12091409B2, “Ether linked triazoles as NRF2 activators” (ASTEX THERAPEUTICS LIMITED, priority 2016, dated 2024).
